Results published in patent publication US20170128426A1, “NOVEL DOSAGE AND FORMULATION” (Almirall, S.A., priority 2012, published 2017).

Experiment: Solubility of aclidinium bromide in solvents
Assay type: physicochemical
Source text: Aclidinium bromide is a white powder with a molecular formula of C26H30NO4S2Br and a molecular mass of 564.56. […] This compound is known to be a long-acting anticholinergic useful in the treatment of respiratory diseases.

## O=C(O[C@H]1C[N+]2(CCCOc3ccccc3)CCC1CC2)C(O)(c1cccs1)c1cccs1.[Br-] [Aclidinium bromide, 3(R)-(2-hydroxy-2,2-dithien-2-ylacetoxy)-1-(3-phenoxypropyl)-1-azoniabicyclo[2.2.2]octane bromide]
ethanol
  solubility in ethanol: very slightly soluble
methanol
  solubility in methanol: sparingly soluble
water
  solubility in water: very slightly soluble
